Test results: patent publication US20050026933A1, “Use of a combination of an epidermal growth factor receptor kinase inhibitor and cytotoxic agents for treatment and inhibition of cancer” (Wyeth Holdings Corporation, priority 2003, published 2005)

Experiments:
[1] = system: GEO colon carcinoma cells; assay: GEO colon carcinoma xenograft in athymic nu/nu mice; format: in vivo, human; conditions: for RTG (Relative Tumor Growth): EKB-569 80 mg/kg PO, paclitaxel 25 mg/kg IV
Procedure: (§1) In all of the experiments, athymic nu/nu female mice (Charles River Laboratories) were injected SC (subcutaneously) with either 7×10^6 or 1×10^7 LoVo colon carcinoma cells or 5×10^6 GEO colon carcinoma cells. When tumors attained a mass of between 80 and 120 mg (Day 0), animals were randomized into treatment groups each containing between 5 and 20 animals, (dependent upon the experiment). Mice were treated orally (PO) with EKB-569 or vehicle control for 15 to 20 days, depending upon the experiment. EKB-569 was formulated in 0.5% Methocel, 0.4% Tween 80. Cytotoxic agents, (paclitaxel, 5-FU and cisplatin), were given either by […] (IP) or intravenous (IV) administration on either days 1, 5 and 9 or on days 1, 5, 9 and 13, depending upon the experiment. Tumor mass ([Length×Width^2]/2) was determined every seven days post staging for up to 35 days. The relative tumor growth, (Mean tumor mass on day measured divided by the mean tumor mass on day zero), and the percent Tumor/Control, (% T/C), was then calculated for each treatment group for as long as the control group remained. The % T/C is defined as the Mean Relative Tumor Growth of the Treated Group divided by the Mean Relative Tumor Growth of Vehicle Control Group multiplied by 100. The data was analyzed via Student's one-tailed t-test. A p-value≦0.05 indicates a statistically significant reduction in relative tumor growth of treated group compared with the vehicle control group or drug treated group.
In the experiment of Table 1 (GEO), 80 mg/kg EKB-569 was administered PO for 15 consecutive days while 25 mg/kg paclitaxel was administered IV on days 1, 5, 9 and 13 (Table 1). The results obtained in this study were identical to that in the LoVo study except that there was up to 85% tumor growth inhibition seen in the group receiving combination therapy.
The activity of EKB-569 in combination with 5-FU was assessed in LoVo and GEO xenografts. In the LoVo experiment, 20 mg/kg EKB-569 was administered for 20 consecutive days while 40 mg/kg 5-FU was administered IP on days 1, 5, 9 and 13. In the GEO experiment, 80 mg/kg EKB-569 was administered PO for 15 consecutive days while 40 mg/kg 5-FU was administered IP on days 1, 5, 9 and 13. […] At all time points, tumor size was smaller in the combination group compared with the single agent groups in these experiments. […]

[2] = system: LoVo colon carcinoma cells; assay: LoVo colon carcinoma xenograft in athymic nu/nu mice; format: in vivo, mouse xenograft of human tumor cells; conditions: 5-FU study LoVo, EKB-569 20 mg/kg PO days 1-20, 5-FU 40 mg/kg IP days 1, 5, 9, 13
Procedure: as §1
The activity of EKB-569 in combination with paclitaxel was assessed using the human colon carcinoma lines LoVo and GEO. In the LoVo experiment, 20 mg/kg EKB-569 was administered PO for 20 consecutive days. Twenty mg/kg paclitaxel prepared in 2% cremophor el and 2% ethanol was administered IV on days 1, 5, 9 and 13.
The activity of EKB-569 in combination with 5-FU was assessed in LoVo and GEO xenografts. In the LoVo experiment, 20 mg/kg EKB-569 was administered for 20 consecutive days while 40 mg/kg 5-FU was administered IP on days 1, 5, 9 and 13. In the GEO experiment, 80 mg/kg EKB-569 was administered PO for 15 consecutive days while 40 mg/kg 5-FU was administered IP on days 1, 5, 9 and 13. […] At all time points, tumor size was smaller in the combination group compared with the single agent groups in these experiments.
The activity of EKB-569 in combination with cisplatin was assessed in LoVo and GEO xenografts. In the LoVo study, 20 mg/kg EKB-569 was administered PO for 20 consecutive days while 3 mg/kg cisplatin was administered IP on days 1, 5 and 9. In the GEO experiment, 80 mg/kg EKB-569 was administered PO for 15 consecutive days while 3 mg/kg cisplatin was administered I P on days 1, 5, 9 and 13. In both these experiments, combination therapy gave statistically significant, (p≦0.05), tumor growth inhibition than either drug alone at 3 out of 4 time points examined.

[3] = paclitaxel study, Day 6, EKB-569 80 mg/kg PO days 1-15, paclitaxel 25 mg/kg IV days 1, 5, 9, 13
[4] = paclitaxel study, Day 15, EKB-569 80 mg/kg PO days 1-15, paclitaxel 25 mg/kg IV days 1, 5, 9, 13
[5] = 5-FU study GEO, Day 8, EKB-569 80 mg/kg PO days 1-15, 5-FU 40 mg/kg IP days 1, 5, 9, 13
[6] = 5-FU study GEO, Day 14, EKB-569 80 mg/kg PO days 1-15, 5-FU 40 mg/kg IP days 1, 5, 9, 13
[7] = 5-FU study GEO, Day 21, EKB-569 80 mg/kg PO days 1-15, 5-FU 40 mg/kg IP days 1, 5, 9, 13
[8] = 5-FU study GEO, Day 28, EKB-569 80 mg/kg PO days 1-15, 5-FU 40 mg/kg IP days 1, 5, 9, 13

SMILES: CC(=O)O[C@H]1C(=O)[C@@]2(C)[C@H]([C@H](OC(=O)c3ccccc3)[C@]3(O)C[C@H](OC(=O)[C@H](O)[C@@H](NC(=O)c4ccccc4)c4ccccc4)C(C)=C1C3(C)C)[C@]1(OC(C)=O)CO[C@@H]1C[C@@H]2O [Paclitaxel, paclitaxel]
- % T/C [1, 3]: 46%
- RTG (Relative Tumor Growth) ([1]; paclitaxel study, Day 6): 1.63
- % T/C [1, 4]: 43%
- RTG (Relative Tumor Growth) ([1]; paclitaxel study, Day 15): 2.69
- RTG (Relative Tumor Growth) ([1]; paclitaxel study, Day 21): 2.24
- RTG (Relative Tumor Growth) ([1]; paclitaxel study, Day 28): 2.70

SMILES: CCOc1cc2ncc(C#N)c(Nc3ccc(F)c(Cl)c3)c2cc1NC(=O)C=CCN(C)C [EKB-569, 4-dimethylamino-but-2-enoic acid [4-(3-chloro-4-fluoro-phenylamino)-3-cyano-7-ethoxy-quinolin-6-yl]-amide]
- % T/C ([2]; Day 7): 84%
- % T/C ([2]; Day 14): 67%
- % T/C ([2]; Day 21): 77%
- % T/C ([2]; Day 29): 95%
- % T/C [1, 5]: 55%
- % T/C [1, 6]: 54%
- % T/C [1, 7]: 81%
- % T/C [1, 8]: 95%
- % T/C [1, 3]: 51%
- RTG (Relative Tumor Growth) ([1]; paclitaxel study, Day 6): 1.78
- % T/C [1, 4]: 53%
- RTG (Relative Tumor Growth) ([1]; paclitaxel study, Day 15): 3.33
- RTG (Relative Tumor Growth) ([1]; paclitaxel study, Day 21): 5.19
- RTG (Relative Tumor Growth) ([1]; paclitaxel study, Day 28): 5.78

SMILES: O=c1[nH]cc(F)c(=O)[nH]1 [5-FU, 5-Fluorouracil]
- % T/C ([2]; Day 7): 59%
- % T/C ([2]; Day 14): 63%
- % T/C ([2]; Day 21): 85%
- % T/C ([2]; Day 29): 77%
- % T/C [1, 5]: 58%
- % T/C [1, 6]: 47%
- % T/C [1, 7]: 50%
- % T/C [1, 8]: 60%
